Laboratory results from PMC9784403 (Pharmaceuticals, 2022).
Several values for one entry are separate records, joined by “and”; a condition that tells them apart may be missing. Equal values may be shown once.

Legend:
[1] = biological target: T1, σ2R/TMEM97 (Rattus norvegicus, UniProt Q5U3Y7); assay: Competitive receptor binding assay with [125I]RHM-4
T1 sequence (Q5U3Y7 1-176): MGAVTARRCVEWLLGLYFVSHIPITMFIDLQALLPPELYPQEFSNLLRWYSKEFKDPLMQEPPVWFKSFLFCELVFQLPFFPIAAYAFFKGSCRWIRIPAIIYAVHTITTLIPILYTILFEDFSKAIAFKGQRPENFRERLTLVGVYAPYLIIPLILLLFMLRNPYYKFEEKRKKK
Description: Briefly, the livers of female SD rats (Rockland, ME, USA) were dissected and homogenized using a Wheaton overhead stirrer (120 Vac Overhead Stirrer, Millville, NJ, USA) in 10 mL/g tissue weight of ice-cold 10mM Tris-HCl/0.32M Sucrose, pH 7.4. The crude homogenate was centrifuged for 10 min at 1000× g at 4 °C, the pellets were discarded, and the supernatant was further centrifuged at 31,000× g for 20 min at 4 °C. The supernatant was discarded, and the pellet was resuspended in 3 mL/g of ice-cold 10 mM Tris-HCl/0.32M sucrose, pH 7.4, and centrifuged again at 31,000× g for 20 min at 4 °C. After centrifugation, the pellets were resuspended in 1 mL of 50mM Tris-HCl, pH 7.4, and stored at −80 °C.
The inhibition constant [14] values of the tested ligands were determined using the Cheng and Prussoff equation [35], and the mean Ki values ± SEM were reported for at least three independent experiments.

[2] = tested on: TMEM97-knocked out HeLa cells; parameters: method as in PMID 30443021; conditions: cited from earlier work
[3] = biological target: T1, σ2R/TMEM97; assay: Competitive receptor binding assay with [3H]DTG (σ1R masked with (+)-pentazocine)
Description: After incubation, the bound ligands were filtered using an M-24 Brandel filtration system (Brandel, Gaithersburg, MD, USA), collected on glass fiber paper (Whatman grade 934-AH, GE Healthcare Bio-Sciences, Pittsburgh, PA, USA), and counted using a MicroBeta2 Microplate counter 2450 (Perkin Elmer, Boston, MA, USA) or Wizard2 Automatic Gamma Counter 2470 (Perkin Elmer, Boston, MA, USA). The inhibition constant [14] values of the tested ligands were determined using the Cheng and Prussoff equation [35], and the mean Ki values ± SEM were reported for at least three independent experiments.

[4] = biological target: T2, σ1R (Cavia porcellus, UniProt Q60492); assay: σ1R competitive binding assay with [3H](+)-pentazocine; conditions: [3H](+)-pentazocine 5 nM; Guinea pig brain membrane; 90 min at 37 °C
T2 construct: 100 μg of the brain membrane from male Guinea pigs; from tissue; host or cells: brain membranes of male guinea pigs
T2 sequence (Q60492 whole entry): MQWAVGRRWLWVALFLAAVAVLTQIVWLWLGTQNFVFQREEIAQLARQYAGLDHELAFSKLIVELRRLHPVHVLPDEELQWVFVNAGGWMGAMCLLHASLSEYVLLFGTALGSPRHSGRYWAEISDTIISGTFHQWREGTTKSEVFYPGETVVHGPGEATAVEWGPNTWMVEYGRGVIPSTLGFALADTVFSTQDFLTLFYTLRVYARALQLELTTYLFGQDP
Text: For the σ1R assay, [^3H]Pentazocine (Perkin Elmer, Boston, MA, USA) was used as the radioligand to define the σ1R binding affinity of the test compounds, and the protocol followed the references published before with minor modification. […] Afterward, the filter paper collection, signal counting procedure, and data analysis were in line with the study of [^3H]DTG mentioned above.

[5] = biological target: T1, σ2R/TMEM97; assay type: binding; parameters: from tissue; host or cells: liver membranes of Sprague-Dawley rats
Description: All Kd and Bmax values were calculated via a nonlinear regression method using Prism, and the protein concentrations were determined using Lowry et al.’s method with BSA as the standard.

Row | Compound | Ki [1] | Ki [3] | Ki [4] | other results
1 | COc1cccc2c1CCCC2CCCN1CCN(C2CCCCC2)CC1 (centres unmarked) [PB-28, reference compound] | 0.1 nM |  |  | 
2 | Cc1ccccc1NC(=N)Nc1ccccc1C [[^3H]DTG, reference compound] |  |  |  | Kd ([2]; read-out: Kd of retained low-affinity binding site): ~300 nM
3 | COc1cc2c(cc1OC)CN(CCc1ccc(NC(=O)c3cccc4c(=O)c5cccc(OC)c5[nH]c34)cc1)CC2 [Elacridar, reference compound] | 0.9 ± 0.3 nM | 11.7 ± 0.7 nM |  | 
4 | Cc1ccc2c(c1)C1CN(C)CCC1N2C(=O)CSc1nnnn1-c1ccc(Cl)cc1 (centres unmarked) [AG-205, reference compound] | 571 ± 82.1 nM | 807 ± 238 nM |  | 
5 | C=CCN(C)CCCCCCOc1ccc(C(=O)c2ccc(Br)cc2)c(F)c1 [Ro 48-8071, reference compound] | 73 ± 32.7 nM | 370 ± 230 nM |  | 
6 | COc1cc2c(cc1OC)CN(CCCCc1cc(-c3ccc(F)cc3)no1)CC2 [compound 4] | 0.05 ± 0.01 nM | 0.6 ± 0.3 nM | 800 ± 23 nM | 
7 | COc1cc2c(cc1OC)CN(CCCCNC(=O)c1cc(I)cc(OC)c1OC)CC2 [RHM-4] | 0.2 ± 0.1 nM | 11.7 ± 2.4 nM |  | fold increase of σ2R/TMEM97 affinity by combination of fragments 1 and 2 ([1]; RHM-4 versus fragments 1 and 2): approximately 10 fold
8 | CCCCNC(=O)c1cc(C)ccc1OCCF [compound 1] | > 10000 nM | > 10000 nM | 1310 ± 87 nM | 
9 | COc1cc2c(cc1OC)CN(CCCCNC(=O)c1cc([125I])cc(OC)c1OC)CC2 [[^125I]RHM-4] |  |  |  | specific binding after knocking out TMEM97 [2]: completely eliminated; Kd ([5]; SD rat liver membranes, saturation binding, 100 nM (+)-pentazocine added for [3H]DTG, n = 3): 0.2 nM; Bmax (binding capacity) ([5]; SD rat liver membranes, saturation binding, n = 3): 3894 ± 50 fmol/mg and 3894 ± 90 fmol/mg; fold higher σ2R/TMEM97 affinity than that of [3H]DTG ([5]; ratio of binding affinities of the two radioligands): ~ 50 fold
10 | COc1cc2c(cc1OC)CN(CCCCc1cc(-c3cc(C)ccc3OCCF)no1)CC2 [compound 3] | 0.24 ± 0.02 nM | 2.3 ± 0.4 nM | 715 ± 46 nM | 
11 | COc1ccc(C)cc1NC(=O)OC1CC2CCCC(C1)N2CCCCCCN (centres unmarked) [SV119, reference compound] | 35 ± 4 nM | 44.3 ± 7.3 nM |  | 
12 | CCCCN1CCc2cc(OC)c(OC)cc2C1 [compound 2] | 7 ± 3.9 nM | 10.4 ± 3.4 nM | 38 ± 3.3 nM | 
